ChEMBL document CHEMBL1909294, “Translating clinical findings into knowledge in drug safety evaluation--drug induced liver injury prediction system (DILIps)” (PLoS Comput Biol, 2011)

What was measured:
[1] = tested on: Hepatotoxicity;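 on HepSE bilirubinemia: bilirubinemia hepatic side effect score drawn from the DILIps training data, a prediction system for drug-induced liver injury; call rule not given here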;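 on HepSE cholecystitis: Cholecystitis-related hepatic side effect score drawn from the DILIps (drug-induced liver injury prediction) training data set; call rule not given here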;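 on HepSE cholelithiasis: hepatic side effect score for cholelithiasis, drawn from the DILIps training data for predicting drug-induced liver injury; call rule not given here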;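 on HepSE cirrhosis: cirrhosis hepatic side effect score taken from the DILIps (drug-induced liver injury prediction) training set; call rule not given here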;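 on HepSE elevated liver function tests: hepatic side effect score for raised liver function tests, as recorded in the DILIps training set used for predicting drug-induced liver injury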; on HepSE hepatic failure: call rule not given here;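 on HepSE hepatomegaly: hepatic side effect score for hepatomegaly, taken from the training set of the DILIps drug-induced liver injury prediction system; call rule not given here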
[2] = tested on: Hepatotoxicity; remark: listed apart in the source;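 on HepSE bilirubinemia: bilirubinemia hepatic side effect score drawn from the DILIps training data, a prediction system for drug-induced liver injury; call rule not given here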;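 on HepSE cholecystitis: Cholecystitis-related hepatic side effect score drawn from the DILIps (drug-induced liver injury prediction) training data set; call rule not given here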;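 on HepSE cholelithiasis: hepatic side effect score for cholelithiasis, drawn from the DILIps training data for predicting drug-induced liver injury; call rule not given here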;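 on HepSE cirrhosis: cirrhosis hepatic side effect score taken from the DILIps (drug-induced liver injury prediction) training set; call rule not given here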;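 on HepSE elevated liver function tests: hepatic side effect score for raised liver function tests, as recorded in the DILIps training set used for predicting drug-induced liver injury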; on HepSE hepatic failure: call rule not given here;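 on HepSE hepatomegaly: hepatic side effect score for hepatomegaly, taken from the training set of the DILIps drug-induced liver injury prediction system; call rule not given here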
[3] = tested on: Hepatotoxicity; remark: listed apart in the source;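 on HepSE bilirubinemia: bilirubinemia hepatic side effect score drawn from the DILIps training data, a prediction system for drug-induced liver injury; call rule not given here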;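 on HepSE cholecystitis: Cholecystitis-related hepatic side effect score drawn from the DILIps (drug-induced liver injury prediction) training data set; call rule not given here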;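 on HepSE cholelithiasis: hepatic side effect score for cholelithiasis, drawn from the DILIps training data for predicting drug-induced liver injury; call rule not given here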;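 on HepSE cirrhosis: cirrhosis hepatic side effect score taken from the DILIps (drug-induced liver injury prediction) training set; call rule not given here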;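 on HepSE elevated liver function tests: hepatic side effect score for raised liver function tests, as recorded in the DILIps training set used for predicting drug-induced liver injury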; on HepSE hepatic failure: call rule not given here
[4] = tested on: Hepatotoxicity; remark: listed apart in the source;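 on HepSE bilirubinemia: bilirubinemia hepatic side effect score drawn from the DILIps training data, a prediction system for drug-induced liver injury; call rule not given here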;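 on HepSE cholecystitis: Cholecystitis-related hepatic side effect score drawn from the DILIps (drug-induced liver injury prediction) training data set; call rule not given here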;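 on HepSE cholelithiasis: hepatic side effect score for cholelithiasis, drawn from the DILIps training data for predicting drug-induced liver injury; call rule not given here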;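 on HepSE cirrhosis: cirrhosis hepatic side effect score taken from the DILIps (drug-induced liver injury prediction) training set; call rule not given here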;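 on HepSE elevated liver function tests: hepatic side effect score for raised liver function tests, as recorded in the DILIps training set used for predicting drug-induced liver injury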; on HepSE hepatic failure: call rule not given here
[5] = tested on: Hepatotoxicity; remark: listed apart in the source; on HepSE hepatic failure: call rule not given here
[6] = tested on: Hepatotoxicity; remark: listed apart in the source; on HepSE hepatic failure: call rule not given here
[7] = tested on: Hepatotoxicity; remark: listed apart in the source
[8] = tested on: Hepatotoxicity; remark: listed apart in the source
[9] = tested on: Hepatotoxicity; remark: listed apart in the source
[10] = tested on: Hepatotoxicity; remark: listed apart in the source
[11] = tested on: Hepatotoxicity; remark: listed apart in the source
[12] = tested on: Hepatotoxicity; remark: listed apart in the source
[13] = tested on: Hepatotoxicity; remark: listed apart in the source
[14] = tested on: Hepatotoxicity; remark: listed apart in the source

SMILES	HepSE_bilirubinemia [1]	HepSE_cholecystitis [2]	HepSE_cholelithiasis [3]	HepSE_cirrhosis [4]	HepSE_elevated liver function tests [5]	HepSE_hepatic failure [6]	HepSE_hepatic necrosis [7]	HepSE_hepatitis [8]	HepSE_hepatomegaly [9]	HepSE_jaundice [10]	HepSE_liver disease [11]	HepSE_liver fatty [12]	HepSE_liver function tests abnormal [13]	HepSE_Combined Scores [14]	HepSE_bilirubinemia ([1]; Liver)	HepSE_cholecystitis ([2]; Liver)	HepSE_cholelithiasis ([3]; Liver)	HepSE_cirrhosis ([4]; Liver)	HepSE_elevated liver function tests ([5]; Liver)	HepSE_hepatic failure ([6]; Liver)	other results
C[N+]1(C)[C@@H]2C[C@@H](OC(=O)C(O)(c3cccs3)c3cccs3)C[C@H]1[C@@H]1O[C@@H]12 [TIOTROPIUM]	0	0	0	0	0	0	0	0	0	0	0	0	0	0							
CCCCS(=O)(=O)N[C@@H](Cc1ccc(OCCCCC2CCNCC2)cc1)C(=O)O [TIROFIBAN]															0	0	0	0	0	0	HepSE_hepatic necrosis ([7]; Liver): 0; HepSE_hepatitis ([8]; Liver): 0; HepSE_hepatomegaly ([9]; Liver): 0; HepSE_jaundice ([10]; Liver): 0; HepSE_liver disease ([11]; Liver): 0; HepSE_liver fatty ([12]; Liver): 0; HepSE_liver function tests abnormal ([13]; Liver): 0; HepSE_Combined Scores ([14]; Liver): 0
Clc1ccc2nsnc2c1NC1=NCCN1 [TIZANIDINE]															0	0	1	1	0	1	HepSE_hepatic necrosis ([7]; Liver): 1; HepSE_hepatitis ([8]; Liver): 1; HepSE_hepatomegaly ([9]; Liver): 0; HepSE_jaundice ([10]; Liver): 1; HepSE_liver disease ([11]; Liver): 1; HepSE_liver fatty ([12]; Liver): 0; HepSE_liver function tests abnormal ([13]; Liver): 1; HepSE_Combined Scores ([14]; Liver): 8
NC[C@H]1O[C@H](O[C@H]2[C@H](O)[C@@H](O[C@H]3O[C@H](CO)[C@@H](O)[C@H](N)[C@H]3O)[C@H](N)C[C@@H]2N)[C@H](N)C[C@@H]1O [TOBRAMYCIN]	0	0	0	0	0	0	0	0	0	0	0	0	0	0							
Cc1ccc(S(=O)(=O)NC(=O)NN2CCCCCC2)cc1 [TOLAZAMIDE]	0	0	0	0	0	0	0	0	0	1	0	0	0	1							
c1ccc(CC2=NCCN2)cc1 [TOLAZOLINE]	0	0	0	0	0	0	0	1	0	0	0	0	0	1							
Cc1ccc(C(=O)c2cc(O)c(O)c([N+](=O)[O-])c2)cc1 [TOLCAPONE]															0	1	1	0	0	0	HepSE_hepatic necrosis ([7]; Liver): 0; HepSE_hepatitis ([8]; Liver): 0; HepSE_hepatomegaly ([9]; Liver): 0; HepSE_jaundice ([10]; Liver): 0; HepSE_liver disease ([11]; Liver): 0; HepSE_liver fatty ([12]; Liver): 0; HepSE_liver function tests abnormal ([13]; Liver): 0; HepSE_Combined Scores ([14]; Liver): 2
